The assay concerns Cisd2 promoter with firefly luciferase reporter. The assay can be described thus: Cisd2-luciferase reporter assay in HEK293-CISD2 cells. The conditions noted are these: Homo sapiens, 24 hours incubation, luciferase luminescence. In kind it is cell-based. The method in brief:
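HEK293 cells stably carrying Cisd2 promoter-firefly luciferase, seeded at 3×10^3 cells/well, exposed to compounds 24 h at 37 °C; luminescence read after 5 min ONE-Glo at room temperature. EC50 reported in classes: A <1 μM, B 1-5 μM, C 5-10 μM.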
Consider `COc1ccc2c(c1)CN(C(=O)CS(=O)(=O)c1ccccn1)C2` [Compound 39, 1-(5-methoxy-1,3-dihydro-2H-isoindol-2-yl)-2-(pyridin-2-ylsulfonyl)ethanone], for which the EC50 (in general, the concentration at which the effect is half-maximal) was below 1 µM.
Regarding `O=C(CSc1ccccc1Cl)N1Cc2ccccc2C1` [Compound 67, 2-[(2-chlorophenyl)sulfanyl]-1-(1,3-dihydro-2H-isoindol-2-yl)ethanone], the EC50 is below 1 µM.
On to `O=C(CSc1ccccn1)N1Cc2ccc(F)cc2C1` [Compound 16, 1-(5-fluoro-1,3-dihydro-2H-isoindol-2-yl)-2-(pyridin-2-ylsulfanyl)ethanone], for which the EC50 was below 1 µM.
`O=C(N1Cc2ccc(F)cc2C1)C(F)(F)Sc1ccccn1` [Compound 26, 2,2-difluoro-1-(5-fluoro-1,3-dihydro-2H-isoindol-2-yl)-2-(pyridin-2-ylsulfanyl)ethanone] came in with a concentration for a half-maximal effect (EC50) below 1 µM.
On to `O=C(CS(=O)(=O)c1cccc(F)c1)N1Cc2ccccc2C1` [Compound 86, 1-(1,3-dihydro-2H-isoindol-2-yl)-2-[(3-fluorophenyl)sulfonyl]ethanone], for which the EC50 is below 1 µM.
For `O=C(CS(=O)(=O)c1ccccn1)N1Cc2ccc(N3CCOCC3)cc2C1` [Compound 100, 1-[5-(morpholin-4-yl)-1,3-dihydro-2H-isoindol-2-yl]-2-(pyridin-2-ylsulfonyl)ethanone], the EC50 lay within 1 to 5 µM.
In the case of `Nc1ccc(SCC(=O)N2Cc3ccccc3C2)cc1` [Compound 61, 2-[(4-aminophenyl)sulfanyl]-1-(1,3-dihydro-2H-isoindol-2-yl)ethanone], the EC50 was below 1 µM.
`O=C(CSc1cccc(F)n1)N1Cc2ccccc2C1` [Compound 73, 1-(1,3-dihydro-2H-isoindol-2-yl)-2-[(6-fluoropyridin-2-yl)sulfanyl]ethanone] had an EC50 of 1 to 5 µM.
In turn, `O=C(CSc1nccs1)N1Cc2ccc(Cl)cc2C1` [Compound 7, 1-(5-chloro-1,3-dihydro-2H-isoindol-2-yl)-2-(1,3-thiazol-2-ylsulfanyl)ethanone] yielded an EC50 below 1 µM.
In the case of `O=C(CS(=O)(=O)c1ccc(F)cc1F)N1Cc2ccccc2C1` [Compound 91, 2-[(2,4-difluorophenyl)sulfonyl]-1-(1,3-dihydro-2H-isoindol-2-yl)ethanone], the EC50 was below 1 µM.
Then `O=C(CS(=O)(=O)c1nccs1)N1Cc2cc(Cl)c(Cl)cc2C1` [Compound 34, 1-(5,6-dichloro-1,3-dihydro-2H-isoindol-2-yl)-2-(1,3-thiazol-2-ylsulfonyl)ethanone], with below 1 µM; and `O=C(CSc1nccs1)N1Cc2cc(Cl)c(Cl)cc2C1` [Compound 8, 1-(5,6-dichloro-1,3-dihydro-2H-isoindol-2-yl)-2-(1,3-thiazol-2-ylsulfanyl)ethanone], with 1 to 5 µM.

The values are drawn from patent publication US11827629B2, “CDGSH iron sulfur domain 2 activators and use thereof” (National Health Research Institutes, priority 2021, dated 2023).
